Values joined by “and” are separate entries in the source; they are usually repeats but may differ in a detail not shown here. Equal entries are not always repeated.
Assays:
[1] = molecular target: T1, human c-KIT (Homo sapiens, UniProt P10721); assay: c-KIT cellular assay: Ba/F3 proliferation with SCF, without IL3; format: cell-based; conditions: for Cell proliferation of the IL-3 dependent Ba/F3 cell line Mean (% prolif): SCF, no IL3, 48 h; for IC50 ratio of IL3/SCF (unspecific/c-KIT): Ba/F3 expressing WT human c-KIT, 72 h
T1 construct: expressed in transfected cells; host or cells: Ba/F3 (murine IL3-dependent pro-B cell line)
Procedure: The generation of Ba/F3 cells expressing wild-type human c-KIT has been previously described by us[55],[56]. For the assay of Ba/F3 cell proliferation, plates were seeded with a total of 10,000 cells per well. Cells were supplemented, or not, with either 0.1% IL3 or 250 ng/ml murine SCF. IL3 was obtained from conditioned medium from X63-omIL-3 cells (obtained from Fritz Melchers laboratory (Berlin, Germany)) and murine SCF, which activates c-KIT, was purified from the conditioned medium of SCF-producing CHO cells. Cells were supplemented with compounds at varying concentrations (final 0.1% DMSO). […] The amount of reduced dye formed by metabolically active cells was quantified by its fluorescence measured at 560 nm (excitation) and 590 nm (emission) in a microplate reader (FLUOstar Omega, BMG Labtech). A blank well without cells was used as a background control. Each experiment was performed at least three times (with technical triplicates) and data are presented as the mean ± SD.

[2] = tested on: human CCRF-CEM T-ALL cell line expressing luciferase; assay: Systemic leukemia model: NSG mice inoculated intravenously with luciferase CCRF-CEM cells; format: in vivo, mouse; design: hCD45+ populations determined by flux cytometry at day 21 of CCRF-CEM bearing mice / Whole body radiance of CCRF-CEM bearing mice: unit not given here; conditions: for effect on leukemic progression: dT 1.5 g/kg, OR0642 40 mg/kg IP; for Whole body radiance of CCRF-CEM bearing mice / hCD45+ populations determined by flux cytometry at day 21 of CCRF-CEM bearing mice / Whole body radiance at day 21 of CCRF-CEM bearing mice / Survival days of CCRF-CEM bearing mice: dT 1,5 g/Kg, OR0642 40 mg/Kg; for hCD45+ populations determined by flux cytometry at day 21 of CCRF-CEM bearing mice: day 21, blood; for Whole body radiance at day 21 of CCRF-CEM bearing mice: day 21, individual mice (Figure 4d);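 on hCD45+ populations determined by flux cytometry at day 21 of CCRF-CEM bearing mice: Bead-counted human ALL blasts per volume of peripheral blood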
[3] = tested on: CCRF-CEM cells; assay: Nucleotides pool measurements; format: cell-based, human; conditions: 24 h, dT 200 µM, dC 1 µM, OR0642 1 µM
Procedure: CCRF-CEM cells exposed to compounds (dT (200 µM) and/or dC, OR0642, DI-87 and DI-39 (1 µM)) for 0 and 24 h were washed, counted and pelleted. Pellets were extracted with the cold sampling solution (acetonitrile (4) / methanol (4)/125 mM formic acid (2)), vortexed and placed 1 h at −20 °C. Then centrifuged and evaporated. Central metabolites were separated on an ionic chromatography column IonPac AS11 (250 × 2 mm i.d.; Dionex). Solvent used was KOH at a flow rate of 350 µl/min. The column was then equilibrated for 6 min at the initial conditions before the next sample was analyzed. The volume of injection was 15 µl. High-resolution experiments were performed with an ICS5000+, ion chromatography system (Dionex) system coupled to an Orbitrap Qexactive+ mass spectrometer (Thermo Fisher Scientific, Waltham) equipped with a heated electrospray ionization probe. MS analyses were performed in negative FTMS mode at a resolution of 140,000 (at 400 m/z) in full-scan mode, with the following source parameters: 325 °C for the capillary temperature, 380 °C for the source heater temperature, 50 a.u. (arbitrary unit) for the sheath gas flow rate, 5 a.u. for the auxiliary gas flow rate, 50% for the S-Lens RF level, and 2.75 kV for the source voltage. Metabolites were determined by extracting the exact mass with a tolerance of 5 ppm. Each experiment was performed three times.

[4] = tested on: CCRF-CEM cells; assay: Annexin V apoptosis assay; format: cell-based, human; conditions: 72 h, dT 200 µM, others 1 µM, presence of dC
Procedure: CCRF-CEM cells were seeded at 100,000 cells/ml, and treated with DMSO (0.01%) as vehicle control or dT (200 μΜ), and/or dC, OR0642, DI-87 and DI-39 (1 μΜ). For cell cycle analysis, cells were harvested after 24 h, fixed in 4% paraformaldehyde, permeabilized with 0.15% Triton X100, and DNA content was determined using 1 μg/ml DAPI. For apoptosis assay, cells were harvested after 72 h and cell death was assayed using Annexin V-APC and 7AAD following manufacturer’s instructions (Biolegend, 640930). For γH2A.X measurements, cells were harvested after 24 h, fixed in 4% paraformaldehyde and permeabilized with 0.15% Triton X100. Then, cells were stained with the phospho-H2AX (pS139 H2AX, Biolegend, 613402, 1:1000) specific primary antibody, Alexa-Fluor 488 secondary antibody (ThermoFisher, A21202, 1:1000) and DAPI. All acquisitions were performed on a BD Fortessa cytometer, and analysis of flow cytometry data was performed using FlowJo™ Software 10.7.1 (BD Life Sciences). Each experiment was performed three times. Figures exemplifying the gating strategy are provided in the Supplementary Information (Supplementary Figs. 29–31).

T1 sequence (P10721 26-976): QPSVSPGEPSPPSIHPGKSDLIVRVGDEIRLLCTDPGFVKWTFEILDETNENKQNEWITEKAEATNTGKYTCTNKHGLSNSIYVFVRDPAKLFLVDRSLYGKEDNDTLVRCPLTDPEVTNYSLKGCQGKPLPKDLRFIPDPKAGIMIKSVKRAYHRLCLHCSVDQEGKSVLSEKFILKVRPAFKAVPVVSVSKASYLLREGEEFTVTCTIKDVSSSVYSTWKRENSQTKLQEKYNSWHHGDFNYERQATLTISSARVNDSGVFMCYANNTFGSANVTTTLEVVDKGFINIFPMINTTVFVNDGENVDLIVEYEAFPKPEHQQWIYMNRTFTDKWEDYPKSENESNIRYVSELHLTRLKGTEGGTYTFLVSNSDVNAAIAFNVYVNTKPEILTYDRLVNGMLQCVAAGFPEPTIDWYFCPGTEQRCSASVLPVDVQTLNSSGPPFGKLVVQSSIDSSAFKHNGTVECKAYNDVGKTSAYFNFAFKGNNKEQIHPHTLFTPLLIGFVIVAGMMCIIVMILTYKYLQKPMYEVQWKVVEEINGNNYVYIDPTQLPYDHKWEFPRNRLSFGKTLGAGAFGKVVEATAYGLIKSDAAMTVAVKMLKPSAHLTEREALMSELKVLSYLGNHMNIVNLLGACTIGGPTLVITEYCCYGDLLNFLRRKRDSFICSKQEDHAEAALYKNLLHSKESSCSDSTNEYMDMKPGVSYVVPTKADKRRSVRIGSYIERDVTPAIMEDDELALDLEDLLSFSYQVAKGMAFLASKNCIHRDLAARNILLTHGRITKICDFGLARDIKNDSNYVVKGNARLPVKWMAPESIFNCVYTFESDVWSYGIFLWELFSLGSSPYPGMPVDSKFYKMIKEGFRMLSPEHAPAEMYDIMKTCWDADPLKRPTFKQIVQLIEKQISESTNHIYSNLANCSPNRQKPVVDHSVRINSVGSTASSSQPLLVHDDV

| Cell proliferation of the IL-3 dependent Ba/F3 cell line Mean (% prolif) ([1]; 3.7 nM) [%] | Cell proliferation of the IL-3 dependent Ba/F3 cell line Mean (% prolif) ([1]; 11 nM) [%] | Cell proliferation of the IL-3 dependent Ba/F3 cell line Mean (% prolif) ([1]; 33 nM) [%] | Cell proliferation of the IL-3 dependent Ba/F3 cell line Mean (% prolif) ([1]; 99 nM) [%] | Cell proliferation of the IL-3 dependent Ba/F3 cell line Mean (% prolif) ([1]; 296 nM) [%] | Cell proliferation of the IL-3 dependent Ba/F3 cell line Mean (% prolif) ([1]; 889 nM) [%] | Cell proliferation of the IL-3 dependent Ba/F3 cell line Mean (% prolif) ([1]; 2667 nM) [%] | Cell proliferation of the IL-3 dependent Ba/F3 cell line Mean (% prolif) ([1]; 8000 nM) [%] | Cell proliferation of the IL-3 dependent Ba/F3 cell line Mean (% prolif) ([1]; 24000 nM) [%] | IC50 ratio of IL3/SCF (unspecific/c-KIT) [1] | Compound | effect on leukemic progression [2] | effect on nucleotide pools [3] | apoptosis, Annexin V staining [4] | other results |
| --- | --- | --- | --- | --- | --- | --- | --- | --- | --- | --- | --- | --- | --- | --- |
| 98.5 | 97.1 | 99.7 | 87.3 | 83.7 | 66.8 | 24.0 | 0.4 | 0.35 | 7.6 | Cc1ccc(NC(=O)c2ccc(CN3CCN(C)CC3)cc2)cc1Nc1nc(-c2nccc(N)n2)cs1 [dCKi1] | – | – | – | – |
| – | – | – | – | – | – | – | – | – | – | CCCN(c1nc(-c2nc(N)cc(N)n2)cs1)c1cc(-c2ccc(S(=O)(=O)N3CCN(C)CC3)cc2C(F)(F)F)ccc1C [OR0642] | did not show any antiproliferative effect | did not affect the nucleotide pools | neither dT nor OR0642 alone induced DNA damage or apoptosis | Whole body radiance of CCRF-CEM bearing mice ([2]; day 0 (before treatment), individual mice, 40 mg/kg): 1948 and 1585 and 1112 and 1289 and 1143 and 2120 and 1563 and 1766 and 1453; Whole body radiance of CCRF-CEM bearing mice ([2]; day 7, individual mice, 40 mg/kg): 5130 and 1470 and 1540 and 826 and 1990 and 2090 and 4750 and 1530 and 2610; Whole body radiance of CCRF-CEM bearing mice ([2]; day 14, individual mice, 40 mg/kg): 392000 and 24500 and 395000 and 489000 and 137000 and 327000 and 469000 and 291000 and 53900; hCD45+ populations determined by flux cytometry at day 21 of CCRF-CEM bearing mice ([2]; individual mice, 40 mg/kg): 216.1 and 194.2 and 86.4 and 80.1 and 74.9 and 211.8 and 120.7 and 113.3 and 112.2; Whole body radiance of CCRF-CEM bearing mice ([2]; day 21, individual mice (Figure 4b), 40 mg/kg): 2070000 and 4600000 and 1490000 and 6950000 and 1760000 and 5460000 and 5470000 and 5010000 and 3010000; Whole body radiance at day 21 of CCRF-CEM bearing mice ([2]; 40 mg/kg): 2180000 and 4850000 and 1550000 and 7340000 and 1840000 and 5680000 and 5590000 and 4590000 and 3150000; Survival days of CCRF-CEM bearing mice ([2]; individual mice, 40 mg/kg): 25 days and 26 days and 27 days |
| – | – | – | – | – | – | – | – | – | – | Cc1cn([C@H]2C[C@H](O)[C@@H](CO)O2)c(=O)[nH]c1=O [dT, thymidine] | scarcely reduced leukemic progression | increased the dTTP pool | neither dT nor OR0642 alone induced DNA damage or apoptosis | Whole body radiance of CCRF-CEM bearing mice ([2]; day 0 (before treatment), individual mice): 2430 and 1179 and 1269 and 2044 and 1251 and 1181 and 1090; Whole body radiance of CCRF-CEM bearing mice ([2]; day 7, individual mice): 1580 and 1140 and 2350 and 2150 and 1440 and 1960 and 2210; Whole body radiance of CCRF-CEM bearing mice ([2]; day 14, individual mice): 94100 and 37700 and 196000 and 167000 and 8080 and 182000 and 106000; hCD45+ populations determined by flux cytometry at day 21 of CCRF-CEM bearing mice ([2]; individual mice): 24.2 and 22.7 and 31.6 and 8.9 and 23.4 and 14.2; Whole body radiance of CCRF-CEM bearing mice ([2]; day 21, individual mice (Figure 4b)): 1150000 and 1620000 and 2390000 and 1910000 and 1880000 and 520000 and 953000; Whole body radiance at day 21 of CCRF-CEM bearing mice [2]: 1720000 and 2530000 and 2010000 and 1980000 and 545000 and 1000000 and 1210000; Survival days of CCRF-CEM bearing mice ([2]; individual mice): 28 days and 29 days and 30 days |
| 97.2 | 96.0 | 97.1 | 91.8 | 94.5 | 86.6 | 76.3 | 48.8 | 6.7 | 2.7 | Cc1ccc(NC(=O)c2ccc(CN3CCN(C)CC3)cc2)cc1Nc1nc(-c2nc(N)cc(N)n2)cs1 [dCKi2, N-(3-((4-(4,6-diaminopyrimidin-2-yl)thiazol-2-yl)amino)-4-methylphenyl)-4-((4-methylpiperazin-1-yl)methyl)benzamide] | – | – | – | – |

— publication PMC10227015, “From a drug repositioning to a structure-based drug design approach to tackle acute lymphoblastic leukemia” (Nature Communications, 2023)
